Measurements published in patent US20100204460A1, “NATURAL BRASSINOSTEROIDS FOR USE FOR TREATING HYPERPROLIFERATION, TREATING PROLIFERATIVE DISEASES AND REDUCING ADVERSE EFFECTS OF STEROID DYSFUNCTION IN MAMMALS, PHARMACEUTICAL COMPOSITION AND ITS USE” (priority 2007, published 2010).
Like-named read-outs stand apart in the source and are kept apart here.

Key:
[1] = tested on: MCF-7, LNCaP and DU-145 cancer cell lines; test: MTT cytotoxicity test, summary over cell lines; type: cell-based; conditions: over cell lines except MDA-MB-468; 24 h; read-out: IC50 value around which the cell lines move (MTT)
Description: Stock solutions ([…]) were prepared by dissolving relevant quantity of substance in DMSO cultivation media (DMEM, RPMI 1640, F-12 medium), fetal bovine serum (FBS), L-glutamine, penicillin, and streptomycin were purchased from Sigma (MO, USA). 3-(4,5-Dimethylthiazol-2-yl)-2,5-diphenyltetrazolium bromide (MTT) was from Serva Electrophoresis (Heidelberg, Germany). Monoclonal mouse anti-bromodeoxyuridine (BrdU) intibody was obtained from DakoCytomation (Glostrup, Denmark). Calcein AM was obtained from PAA Laboratories GmbH (Pasching, Austria). […]
Cell viability in this case was assessed by 3-(4,5-dimethylthiozol-2-yl)-2,5-diphenyltetrazolium bromide (MTT) to determine IC50 concentrations of studied agents as described previously. […] The absorbance was read using an ELISA reader Labsystem Multiscan RC at 570 nm. […]

arena viruses = conditions: cited from earlier work
[2] = tested on: herpes simplex virus type 1 (HSV-1); conditions: cited from earlier work
[3] = tested on: MCF-7 (estrogen receptor-α-positive) breast cancer cell line; test: MTT cytotoxicity test, MCF-7; type: cell-based; conditions: 24 h, mean ± SD, read-out: IC50 determined by MTT cytotoxicity test
Description: 3-(4,5-Dimethylthiazol-2-yl)-2,5-diphenyltetrazolium bromide (MTT) was from Serva Electrophoresis (Heidelberg, Germany). Monoclonal mouse anti-bromodeoxyuridine (BrdU) intibody was obtained from DakoCytomation (Glostrup, Denmark). Calcein AM was obtained from PAA Laboratories GmbH (Pasching, Austria). […] All other cells were cultured in DMEM medium (Sigma, MO, USA). All used media were supplemented with 10% heat-inactivated fetal bovine serum, 2 mmol/L L-glutamine, 1% penicillin/streptomycin. The cell lines were maintained under standard cell culture conditions at 37° C. and 5% CO2 in a humid environment. Cells were subcultured twice or three times a week using the standard trypsinization procedure (Sigma, USA).
Cell viability in this case was assessed by 3-(4,5-dimethylthiozol-2-yl)-2,5-diphenyltetrazolium bromide (MTT) to determine IC50 concentrations of studied agents as described previously. […] The cells (70% to 80% confluent) were treated with brassinosteroids for 6, 12 and 24 h in cell culture medium. Cells that were used as controls were incubated with the maximum used amount of steroid diluent DMSO only. […] The absorbance was read using an ELISA reader Labsystem Multiscan RC at 570 nm. The viability of treated cells was related to the viability of control cells that represented 100% viability. […]

measles virus (MV) = conditions: cited from earlier work
[4] = tested on: normal and cancer cell lines of different histopathological origin; test: Calcein AM cytotoxicity assay, summary statements over the cell line panel; type: cell-based; conditions: versus 28-homobrassinolide 2
Description: Stock solutions ([…]) were prepared by dissolving relevant quantity of substance in DMSO cultivation media (DMEM, RPMI 1640, F-12 medium), fetal bovine serum (FBS), L-glutamine, penicillin, and streptomycin were purchased from Sigma (MO, USA). 3-(4,5-Dimethylthiazol-2-yl)-2,5-diphenyltetrazolium bromide (MTT) was from Serva Electrophoresis (Heidelberg, Germany). Monoclonal mouse anti-bromodeoxyuridine (BrdU) intibody was obtained from DakoCytomation (Glostrup, Denmark). Calcein AM was obtained from PAA Laboratories GmbH (Pasching, Austria). The screening cell lines (T-lymphoblastic leukaemia cell line CEM; breast carcinoma cell line MCF-7 (estrogen-sensitive), breast adenocarcinoma cell line MDA-MB 468 (cell lines LNCaP (androgen-sensitive), prostate carcinoma cell line DU-145 ([…]), lung carcinoma cell line A-549, chronic myelogenous leukemia cell line K562, multiple myeloma cell line RPMI 8226, cervical carcinoma cell line HeLa, malignant human melanoma cell line G361, osteosarcoma cell line HOS, and normal human fibroblasts (BJ) were obtained from the American Type Culture Collection (Manassas, Va., USA). MCF-7 cells were cultured in F-12 medium (Sigma, MO, USA). LNCaP cells were cultured in RPMI 1640 medium (GIBCO, USA). All other cells were cultured in DMEM medium (Sigma, MO, USA). All used media were supplemented with 10% heat-inactivated fetal bovine serum, 2 mmol/L L-glutamine, 1% penicillin/streptomycin. The cell lines were maintained under standard cell culture conditions at 37° C. and 5% CO2 in a humid environment. Cells were subcultured twice or three times a week using the standard trypsinization procedure (Sigma, USA).
The cell suspension of approximate density of 1.25×10^5 cells/mL was redistributed into 96-well microtitre plates and after 12 h of stabilization the tested Brassinosteroids (BRs) were added in different concentrations. BRs were dissolved in DMSO. Control cultures were treated with DMSO alone. The final concentration of DMSO in the reaction mixture never exceeded 1%. Tested compounds in given concentrations were added at time zero in 20 μL aliquots to the microtiter plate wells. Usually, each test compound was evaluated at six 4-fold dilutions. In routine testing, the highest well concentration was 50 μmol, but it can be the matter of change dependent on the agent. Cultivation proceeds 96 h at 37° C., the cells were incubated with Calcein AM solution (Molecular Probes) for 1 h. Fluorescence (OD) of viable cells was quantified with Fluoroscan Ascent (Microsystems). The cell survival (IC50) was calculated using the following equation: IC50=(ODdrug exposed well/mean ODcontrol wells)×100%. Each compound was tested in triplicates and the test was repeated at least 3 times. The IC50 value, corresponding to drug concentration lethal to 50% of the tumor cells, was calculated from the obtained dose response curves.
We investigated effects of brassinosteroid on viability of normal and cancer cell lines of different histopathological origin. To evaluate the cytotoxic properties of several BRs and some related steroids, we used T-lymphoblastic leukaemia cell line CEM, breast carcinoma cell line MCF-7, lung carcinoma cell line A-549, chronic myeloid leukaemia cell line K562, multiple myeloma cell line RPMI 8226, cervical carcinoma cell line HeLa, malignant melanoma cell line G361, osteosarcoma cell line HOS, and normal human fibroblasts BJ. The cells were exposed to six 4-fold dilutions of each drug for 72 h to determinate number of surviving cells.

[5] = tested on: cultured mouse hybridoma cells; conditions: cited from earlier work; for density of viable cells / growth: mouse hybridoma cells, concentrations of 10^−13 mol/L and 10^−12 mol/L

Structure (SMILES) | IC50 [1] [µM] | in vitro antiviral activity (arena viruses) | in vitro antiviral activity [2] | IC50 [3] [µM] | in vitro antiviral activity (measles virus (MV)) | strength of growth inhibitory response relative to 28-homobrassinolide 2 [4] | S-phase cells ([5]; cultured mouse hybridoma cells) | fraction of the cells in G0/G1 phase ([5]; cultured mouse hybridoma cells) | intracellular antibody level ([5]; cultured mouse hybridoma cells) | value of mitochondrial membrane potential ([5]; cultured mouse hybridoma cells) | density of viable cells / growth ([5]; listed as 6) | density of viable cells / growth ([5]; listed as 24-epibrassinolide)
CC[C@@H](C(C)C)[C@@H](O)[C@H](O)[C@@H](C)[C@H]1CC[C@H]2[C@@H]3CC(=O)[C@H]4C[C@H](O)[C@H](O)C[C@]4(C)[C@H]3CC[C@]12C [Brassinosteroid 9, 28-Homocastasterone] | ~43.3 | in vitro antiviral activity | in vitro antiviral activity | 40 ± 1.5 | in vitro antiviral activity | about 3 times |  |  |  |  |  | 
CC(C)[C@@H](C)[C@@H](O)[C@H](O)[C@@H](C)[C@H]1CC[C@H]2[C@@H]3COC(=O)[C@H]4C[C@H](O)[C@H](O)C[C@]4(C)[C@H]3CC[C@]12C [Brassinosteroid 6, 24-Epibrassinolide] | ~61.7 |  |  | 60 ± 1.8 |  |  | decrease of S-phase cells | increase in the fraction of the cells in G0/G1 phase | decrease of intracellular antibody level | increase in the value of mitochondrial membrane potential | significant positive effect | significantly higher
